Experimental data: the kinase profiling compilation of Christmann-Franck et al. (2016)

Tests used:
Experiment in all cases: radiometric filter-binding kinase assay, Kinase HotSpot
Details in all cases: compound 0.5 µM; ATP 10 µM
SYK (human) = SYK (human) (UniProt P43405)
ITK (human) = ITK (human) (UniProt Q08881)
FLT3 (human) = FLT3 (human) (UniProt P36888)
PLK2 (human) = PLK2 (human) (UniProt Q9NYY3)
MAP3K5 (human) = MAP3K5 (human) (UniProt Q99683)
STK33 (human) = STK33 (human) (UniProt Q9BYT3)
MAPKAPK2 (human) = MAPKAPK2 (human) (UniProt P49137)
GSG2 (human) = GSG2 (human) (UniProt Q8TF76)
MYO3B (human) = MYO3B (human) (UniProt Q8WXR4)
CDK9 CCNT1 (human) = CDK9 CCNT1 (human) (UniProt P50750+O60563)
MAP3K14 (human) = MAP3K14 (human) (UniProt Q99558)
HIPK2 (human) = HIPK2 (human) (UniProt Q9H2X6)
PRKCE (human) = PRKCE (human) (UniProt Q02156)
CAMK1G (human) = CAMK1G (human) (UniProt Q96NX5)
FLT1 (human) = FLT1 (human) (UniProt P17948)
AURKB (human) = AURKB (human) (UniProt Q96GD4)
NLK (human) = NLK (human) (UniProt Q9UBE8)
TXK (human) = TXK (human) (UniProt P42681)
SRPK2 (human) = SRPK2 (human) (UniProt P78362)
STK4 (human) = STK4 (human) (UniProt Q13043)
PAK1 (human) = PAK1 (human) (UniProt Q13153)
[1] = biological target: TYK2 JH1 catalytic (human) (UniProt P29597)
MAP3K9 (human) = MAP3K9 (human) (UniProt P80192)
ZAP70 (human) = ZAP70 (human) (UniProt P43403)
HIPK4 (human) = HIPK4 (human) (UniProt Q8NE63)
MAP3K3 (human) = MAP3K3 (human) (UniProt Q99759)
STK38 (human) = STK38 (human) (UniProt Q15208)
YES1 (human) = YES1 (human) (UniProt P07947)
TAOK3 (human) = TAOK3 (human) (UniProt Q9H2K8)
WNK2 (human) = WNK2 (human) (UniProt Q9Y3S1)
RPS6KB2 (human) = RPS6KB2 (human) (UniProt Q9UBS0)
AXL (human) = AXL (human) (UniProt P30530)
SGK3 (human) = SGK3 (human) (UniProt Q96BR1)
CSNK1E (human) = CSNK1E (human) (UniProt P49674)
PTK2B (human) = PTK2B (human) (UniProt Q14289)
NTRK2 (human) = NTRK2 (human) (UniProt Q16620)
DAPK1 (human) = DAPK1 (human) (UniProt P53355)
CLK1 (human) = CLK1 (human) (UniProt P49759)
TEK (human) = TEK (human) (UniProt Q02763)
PLK3 (human) = PLK3 (human) (UniProt Q9H4B4)
CDK9 CCNK (human) = CDK9 CCNK (human) (UniProt O75909+P50750)
IGF1R (human) = IGF1R (human) (UniProt P08069)

Sequence of TYK2 JH1 catalytic (human) (P29597 whole entry, looked up): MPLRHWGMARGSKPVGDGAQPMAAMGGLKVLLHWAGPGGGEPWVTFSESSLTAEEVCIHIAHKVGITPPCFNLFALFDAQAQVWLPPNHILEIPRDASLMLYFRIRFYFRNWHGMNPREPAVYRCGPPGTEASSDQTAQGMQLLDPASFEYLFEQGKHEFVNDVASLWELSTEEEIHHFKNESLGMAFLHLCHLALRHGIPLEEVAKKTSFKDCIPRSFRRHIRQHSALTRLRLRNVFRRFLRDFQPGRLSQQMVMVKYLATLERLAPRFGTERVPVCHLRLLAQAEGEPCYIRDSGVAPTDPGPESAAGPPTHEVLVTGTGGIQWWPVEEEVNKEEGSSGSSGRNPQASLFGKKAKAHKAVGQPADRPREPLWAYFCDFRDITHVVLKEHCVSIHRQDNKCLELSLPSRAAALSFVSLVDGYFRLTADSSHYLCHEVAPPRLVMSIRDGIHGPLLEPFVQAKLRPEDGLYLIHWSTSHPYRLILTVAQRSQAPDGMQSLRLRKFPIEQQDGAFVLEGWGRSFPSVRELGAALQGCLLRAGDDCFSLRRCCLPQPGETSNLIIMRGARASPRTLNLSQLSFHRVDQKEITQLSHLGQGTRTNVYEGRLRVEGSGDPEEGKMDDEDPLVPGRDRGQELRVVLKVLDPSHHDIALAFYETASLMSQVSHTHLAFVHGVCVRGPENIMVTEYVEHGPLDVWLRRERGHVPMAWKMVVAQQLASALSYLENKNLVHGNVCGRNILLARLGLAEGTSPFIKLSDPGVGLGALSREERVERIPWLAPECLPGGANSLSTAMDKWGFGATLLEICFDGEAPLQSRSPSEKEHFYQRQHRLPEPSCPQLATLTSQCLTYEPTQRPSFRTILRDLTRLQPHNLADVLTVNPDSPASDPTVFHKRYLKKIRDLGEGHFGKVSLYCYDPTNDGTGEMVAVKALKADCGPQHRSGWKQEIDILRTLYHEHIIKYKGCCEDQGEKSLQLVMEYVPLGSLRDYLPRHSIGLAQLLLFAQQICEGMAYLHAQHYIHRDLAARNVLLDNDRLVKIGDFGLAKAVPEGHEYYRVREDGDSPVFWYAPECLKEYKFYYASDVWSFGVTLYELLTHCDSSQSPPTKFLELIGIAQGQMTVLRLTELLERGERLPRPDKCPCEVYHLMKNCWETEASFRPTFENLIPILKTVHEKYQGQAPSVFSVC
Sequence of STK33 (human) (Q9BYT3 whole entry, looked up): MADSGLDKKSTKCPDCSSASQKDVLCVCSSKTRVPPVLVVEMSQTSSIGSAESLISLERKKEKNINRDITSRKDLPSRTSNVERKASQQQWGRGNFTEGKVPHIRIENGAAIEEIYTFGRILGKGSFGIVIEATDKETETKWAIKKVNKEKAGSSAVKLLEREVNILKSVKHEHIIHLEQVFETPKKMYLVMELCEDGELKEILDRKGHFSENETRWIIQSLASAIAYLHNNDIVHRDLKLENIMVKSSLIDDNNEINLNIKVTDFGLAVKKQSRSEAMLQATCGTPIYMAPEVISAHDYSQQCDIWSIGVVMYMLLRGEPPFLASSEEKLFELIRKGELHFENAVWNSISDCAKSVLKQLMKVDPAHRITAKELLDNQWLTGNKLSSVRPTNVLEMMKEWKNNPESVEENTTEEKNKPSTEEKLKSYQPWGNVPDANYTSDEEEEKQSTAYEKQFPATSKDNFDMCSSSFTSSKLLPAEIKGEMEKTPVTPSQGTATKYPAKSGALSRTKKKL
Sequence of FLT3 (human) (P36888 whole entry, looked up): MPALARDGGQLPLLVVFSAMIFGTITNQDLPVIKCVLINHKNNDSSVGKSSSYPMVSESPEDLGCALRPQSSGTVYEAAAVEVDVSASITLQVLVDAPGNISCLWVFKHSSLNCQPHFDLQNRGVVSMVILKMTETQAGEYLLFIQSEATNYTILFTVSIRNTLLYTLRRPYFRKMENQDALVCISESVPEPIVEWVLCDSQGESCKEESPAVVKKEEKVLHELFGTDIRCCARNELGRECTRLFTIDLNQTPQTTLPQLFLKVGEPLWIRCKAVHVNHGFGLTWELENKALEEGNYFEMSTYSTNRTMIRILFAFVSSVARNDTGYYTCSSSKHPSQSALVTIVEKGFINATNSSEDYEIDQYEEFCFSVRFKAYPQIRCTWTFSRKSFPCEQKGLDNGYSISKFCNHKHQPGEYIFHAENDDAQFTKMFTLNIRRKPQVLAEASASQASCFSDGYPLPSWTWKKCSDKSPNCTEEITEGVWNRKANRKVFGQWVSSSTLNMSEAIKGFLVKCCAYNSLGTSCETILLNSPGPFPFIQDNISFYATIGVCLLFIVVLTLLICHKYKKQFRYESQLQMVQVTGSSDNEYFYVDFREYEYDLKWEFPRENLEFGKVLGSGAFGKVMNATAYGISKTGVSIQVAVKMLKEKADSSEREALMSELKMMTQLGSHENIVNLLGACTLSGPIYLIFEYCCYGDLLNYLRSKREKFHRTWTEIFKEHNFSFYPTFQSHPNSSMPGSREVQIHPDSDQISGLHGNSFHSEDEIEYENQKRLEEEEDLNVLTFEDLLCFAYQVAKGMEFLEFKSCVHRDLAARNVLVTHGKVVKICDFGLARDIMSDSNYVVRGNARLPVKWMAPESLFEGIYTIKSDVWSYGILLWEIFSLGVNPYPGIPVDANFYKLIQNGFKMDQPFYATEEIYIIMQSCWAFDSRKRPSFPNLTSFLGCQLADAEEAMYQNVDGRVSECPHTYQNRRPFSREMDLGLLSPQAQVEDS
Sequence of SRPK2 (human) (P78362 whole entry, looked up): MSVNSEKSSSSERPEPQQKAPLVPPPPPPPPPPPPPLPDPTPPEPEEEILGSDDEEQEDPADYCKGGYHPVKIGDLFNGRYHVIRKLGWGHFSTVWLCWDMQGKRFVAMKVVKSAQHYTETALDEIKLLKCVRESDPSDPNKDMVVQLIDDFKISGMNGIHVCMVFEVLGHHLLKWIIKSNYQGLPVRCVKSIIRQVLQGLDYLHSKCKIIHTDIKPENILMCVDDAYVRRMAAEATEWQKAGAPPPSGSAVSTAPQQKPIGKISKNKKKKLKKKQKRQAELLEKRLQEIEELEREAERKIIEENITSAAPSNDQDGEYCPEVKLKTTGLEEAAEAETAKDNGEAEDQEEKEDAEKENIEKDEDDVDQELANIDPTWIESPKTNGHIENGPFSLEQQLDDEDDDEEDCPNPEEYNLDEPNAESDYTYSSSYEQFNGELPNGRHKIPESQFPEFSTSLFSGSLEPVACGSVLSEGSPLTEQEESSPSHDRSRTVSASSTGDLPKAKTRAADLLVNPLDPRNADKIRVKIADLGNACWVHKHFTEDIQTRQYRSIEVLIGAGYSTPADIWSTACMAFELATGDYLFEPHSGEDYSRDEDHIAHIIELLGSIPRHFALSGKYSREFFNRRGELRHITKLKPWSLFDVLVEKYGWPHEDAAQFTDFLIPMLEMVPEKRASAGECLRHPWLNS
Sequence of NLK (human) (Q9UBE8 whole entry, looked up): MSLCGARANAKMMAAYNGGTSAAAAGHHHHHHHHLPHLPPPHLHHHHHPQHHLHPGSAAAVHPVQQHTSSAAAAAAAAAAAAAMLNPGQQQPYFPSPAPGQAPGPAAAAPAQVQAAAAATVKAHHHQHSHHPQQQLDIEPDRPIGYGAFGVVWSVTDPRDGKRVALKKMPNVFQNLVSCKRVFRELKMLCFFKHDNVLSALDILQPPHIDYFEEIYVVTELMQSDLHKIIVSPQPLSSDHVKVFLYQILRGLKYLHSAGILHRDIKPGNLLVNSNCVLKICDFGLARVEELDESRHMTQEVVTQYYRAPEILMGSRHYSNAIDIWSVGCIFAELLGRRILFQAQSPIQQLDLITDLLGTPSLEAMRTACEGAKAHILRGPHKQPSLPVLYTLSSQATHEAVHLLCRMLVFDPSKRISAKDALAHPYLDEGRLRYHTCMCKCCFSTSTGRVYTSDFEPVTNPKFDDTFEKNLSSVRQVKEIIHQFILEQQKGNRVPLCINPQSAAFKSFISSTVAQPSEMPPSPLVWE
Sequence of MAP3K9 (human) (P80192 whole entry, looked up): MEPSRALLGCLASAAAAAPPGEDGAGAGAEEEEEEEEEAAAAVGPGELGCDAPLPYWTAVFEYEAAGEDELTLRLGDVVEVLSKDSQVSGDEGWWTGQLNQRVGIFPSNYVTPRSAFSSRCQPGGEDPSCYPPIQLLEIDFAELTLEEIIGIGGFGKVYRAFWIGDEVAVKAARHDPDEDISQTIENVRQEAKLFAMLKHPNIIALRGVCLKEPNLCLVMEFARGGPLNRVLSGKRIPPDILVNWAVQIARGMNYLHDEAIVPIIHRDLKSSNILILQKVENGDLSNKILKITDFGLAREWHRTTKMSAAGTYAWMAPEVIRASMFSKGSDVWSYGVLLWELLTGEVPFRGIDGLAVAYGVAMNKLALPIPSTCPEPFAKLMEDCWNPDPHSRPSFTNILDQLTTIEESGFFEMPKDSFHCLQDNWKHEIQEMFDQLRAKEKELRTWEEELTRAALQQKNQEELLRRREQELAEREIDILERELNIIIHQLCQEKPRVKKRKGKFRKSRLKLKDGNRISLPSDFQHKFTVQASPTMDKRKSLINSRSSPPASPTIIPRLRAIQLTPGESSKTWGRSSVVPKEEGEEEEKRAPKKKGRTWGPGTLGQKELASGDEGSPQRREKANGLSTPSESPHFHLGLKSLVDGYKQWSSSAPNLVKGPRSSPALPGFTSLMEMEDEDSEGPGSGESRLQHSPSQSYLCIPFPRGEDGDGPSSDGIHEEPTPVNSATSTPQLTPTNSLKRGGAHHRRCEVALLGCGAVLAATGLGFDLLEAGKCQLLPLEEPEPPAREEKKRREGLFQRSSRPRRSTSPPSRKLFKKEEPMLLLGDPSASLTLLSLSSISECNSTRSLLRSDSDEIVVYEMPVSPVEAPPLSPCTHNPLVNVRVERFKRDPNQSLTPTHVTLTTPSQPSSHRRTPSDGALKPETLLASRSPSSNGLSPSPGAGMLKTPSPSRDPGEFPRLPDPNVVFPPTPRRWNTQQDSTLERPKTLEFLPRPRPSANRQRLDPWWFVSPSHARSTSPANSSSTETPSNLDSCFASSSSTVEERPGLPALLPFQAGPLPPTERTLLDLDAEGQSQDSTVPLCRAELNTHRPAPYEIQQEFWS

Structure (SMILES): CO[C@H]1CC2CC[C@@H](C)[C@@](O)(O2)C(=O)C(=O)N2CCCC[C@H]2C(=O)OC([C@H](C)C[C@@H]2CC[C@@H](O)[C@H](OC)C2)CC(=O)[C@H](C)/C=C(\C)[C@@H](O)[C@@H](OC)C(=O)[C@H](C)C[C@H](C)/C=C/C=C/C=C/1C (some centres undefined)
- residual activity (SYK (human)): 97.1%
- residual activity (ITK (human)): 92.5%
- residual activity (FLT3 (human)): 95.6%
- residual activity (PLK2 (human)): 105%
- residual activity (MAP3K5 (human)): 107%
- residual activity (STK33 (human)): 105%
- residual activity (MAPKAPK2 (human)): 101%
- residual activity (GSG2 (human)): 103%
- residual activity (MYO3B (human)): 106%
- residual activity (CDK9 CCNT1 (human)): 87%
- residual activity (MAP3K14 (human)): 105%
- residual activity (HIPK2 (human)): 88%
- residual activity (PRKCE (human)): 105%
- residual activity (CAMK1G (human)): 93%
- residual activity (FLT1 (human)): 97.7%
- residual activity (AURKB (human)): 95.2%
- residual activity (NLK (human)): 97.3%
- residual activity (TXK (human)): 105%
- residual activity (SRPK2 (human)): 104%
- residual activity (STK4 (human)): 106%
- residual activity (PAK1 (human)): 95.6%
- residual activity [1]: 107%
- residual activity (MAP3K9 (human)): 87.3%
- residual activity (ZAP70 (human)): 99.2%
- residual activity (HIPK4 (human)): 92.9%
- residual activity (MAP3K3 (human)): 101%
- residual activity (STK38 (human)): 92.8%
- residual activity (YES1 (human)): 101%
- residual activity (TAOK3 (human)): 106%
- residual activity (WNK2 (human)): 103%
- residual activity (RPS6KB2 (human)): 95.4%
- residual activity (AXL (human)): 99.5%
- residual activity (SGK3 (human)): 98.1%
- residual activity (CSNK1E (human)): 102%
- residual activity (PTK2B (human)): 94.2%
- residual activity (NTRK2 (human)): 106%
- residual activity (DAPK1 (human)): 88.5%
- residual activity (CLK1 (human)): 107%
- residual activity (TEK (human)): 97.6%
- residual activity (PLK3 (human)): 96.2%
- residual activity (CDK9 CCNK (human)): 106%
- residual activity (IGF1R (human)): 112%

Structure (SMILES): CCN(CC)CCNC(=O)c1c(C)[nH]c(/C=C2\C(=O)Nc3ccc(Cl)cc32)c1C
- residual activity (SYK (human)): 59.2%
- residual activity (ITK (human)): 30%
- residual activity (FLT3 (human)): 0.782%
- residual activity (PLK2 (human)): 91.2%
- residual activity (MAP3K5 (human)): 98.1%
- residual activity (STK33 (human)): 20.6%
- residual activity (MAPKAPK2 (human)): 103%
- residual activity (GSG2 (human)): 82.9%
- residual activity (MYO3B (human)): 41.3%
- residual activity (CDK9 CCNT1 (human)): 58.8%
- residual activity (MAP3K14 (human)): 118%
- residual activity (HIPK2 (human)): 20%
- residual activity (PRKCE (human)): 102%
- residual activity (CAMK1G (human)): 49.5%
- residual activity (FLT1 (human)): 34.4%
- residual activity (AURKB (human)): 31.9%
- residual activity (NLK (human)): 101%
- residual activity (TXK (human)): 79.5%
- residual activity (SRPK2 (human)): 93.7%
- residual activity (STK4 (human)): 2.98%
- residual activity (PAK1 (human)): 93.4%
- residual activity [1]: 30.8%
- residual activity (MAP3K9 (human)): 49.6%
- residual activity (ZAP70 (human)): 91.2%
- residual activity (HIPK4 (human)): 61.7%
- residual activity (MAP3K3 (human)): 30.6%
- residual activity (STK38 (human)): 95.8%
- residual activity (YES1 (human)): 5.29%
- residual activity (TAOK3 (human)): 45.5%
- residual activity (WNK2 (human)): 101%
- residual activity (RPS6KB2 (human)): 91.6%
- residual activity (AXL (human)): 25.2%
- residual activity (SGK3 (human)): 103%
- residual activity (CSNK1E (human)): 46.7%
- residual activity (PTK2B (human)): 30.5%
- residual activity (NTRK2 (human)): 8.43%
- residual activity (DAPK1 (human)): 47.7%
- residual activity (CLK1 (human)): 34.2%
- residual activity (TEK (human)): 98.2%
- residual activity (PLK3 (human)): 89.8%
- residual activity (CDK9 CCNK (human)): 40.1%
- residual activity (IGF1R (human)): 35.2%
